The results in this text go back to patent publication US7345056B2, “Bridged N-cyclic sulfonamido inhibitors of gamma secretase” (Elan Pharmaceuticals, Inc., priority 2005, dated 2008).

As a reminder, the IC50 is the point on the concentration scale where inhibition reaches its midpoint.

The test addresses T1, gamma-secretase (partially purified extract of IMR-32 cell membranes) (Homo sapiens, UniProt P49768).
T1 construct: a partially purified extract of IMR-32 cell membranes as the gamma-secretase enzyme preparation; endogenous in cells; host or cells: IMR-32 cell membranes, partially purified extract
The experiment in a line: Gamma-secretase APP enzyme assay (cleavage of MBP-C125 Swe at the Aβ40 site, sandwich ELISA). The following applies: MBP-C125swe substrate, IMR-32 membrane extract, 2 h at 37° C., Aβ40 site cleavage product by ELISA; read-out: γAPP (inhibition, IC50). The format is biochemical. The source says:
The gamma-secretase APP enzyme assay was designed to measure the specific proteolytic cleavage of an APP substrate (MBP-C125 Swe fusion protein) at the Aβ40 site. […] This assay involved two steps beginning with the enzymatic reaction generating a cleavage product that was captured with an immobilized antibody specific for the neo-epitope Aβ40 site. The captured cleavage product was then detected in a sandwich ELISA assay with a biotinylated reporter antibody that is specific to Aβ (17-28). Streptavidin-linked alkaline phosphatase was then added that would generate a fluorescent signal proportional to the amount of cleavage product.
This warmed solution of BigCHAPS(N,N-Bis(3-D-gluconamidopropyl)cholamide) detergent was used to dissolve Brain Extract Type-V (lipid containing a minimum of 40% phosphatidylethanolamine) from Sigma (St. Louis, Mo.) to a concentration of 8 mg/ml. This solution containing BigCHAPS and lipid at 8 mg/ml is then diluted to 0.53 mg/ml lipid with a pre-warmed solution of Hepes and sodium chloride. This final solution containing Hepes buffer, sodium chloride, BigCHAPS detergent and lipid is used to create working solutions of both gamma-secretase (25 Units) and the MBP-C125 substrate (0.05 mg/ml).
Gamma-secretase was then added to a 96-well micro-titre plate and then incubated with various concentrations of inhibitor for 30 minutes at 37° C. MBPC125 substrate was then added to initiate the reaction that would run for two hours at 37° C. The reaction was quenched with the addition of SDS to a final concentration of 0.1% and then 100 μl of the reaction mixture was transferred to a capture ELISA plate and incubated overnight at 4° C. Detection of the cleavage product was performed using a standard sandwich ELISA assay and quantified using a six point standard curve.
Background: In an ELISA, binding on a coated surface is turned into a signal by an enzyme label.
`O=S(=O)(c1ccc(Cl)cc1)N1C2CCCC1c1c(C(F)F)n[nH]c1C2` (stereo not shown) [12-(4-Chloro-benzenesulfonyl)-3-difluoromethyl-4,5,12-triaza-tricyclo[6.3.1.0^2,6]dodeca-2(6),3-diene]: the IC50 is less than 100 nM. Under `Cc1n[nH]c2c1C1CCCC(C2)N1S(=O)(=O)c1ccc(Cl)cc1` (stereo not shown) [12-(4-Chloro-benzenesulfonyl)-3-methyl-4,5,12-triaza-tricyclo[6.3.1.0^2,6]dodeca-2(6),3-diene] stands less than 100 nM. Under `O=S(=O)(c1ccc(Cl)s1)N1C2CCCC1c1cn[nH]c1C2` (stereo not shown) [Example 8, 12-(5-Chloro-thiophene-2-sulfonyl)-4,5,12-triaza-tricyclo[6.3.1.0^2,6]dodeca-2(6),3-diene] stands less than 100 nM; under `CC1c2[nH]ncc2C2CCCC1N2S(=O)(=O)c1ccc(Cl)cc1` (stereo not shown) [Example 11, 12-(4-Chloro-benzenesulfonyl)-7-methyl-4,5,12-triaza-tricyclo[6.3.1.0^2,6]dodeca-2(6),3-diene], less than 100 nM; under `CCC1c2[nH]ncc2C2CCCC1N2S(=O)(=O)c1ccc(Cl)cc1` (stereo not shown) [Example 14, 12-(4-Chloro-benzenesulfonyl)-7-ethyl-4,5,12-triaza-tricyclo[6.3.1.0^2,6]dodeca-2(6),3-diene], less than 100 nM. Under `O=S(=O)(c1ccc(Cl)cc1)N1C2CCCC1C(O)c1[nH]ncc12` (stereo not shown) [Example 36, 12-(4-Chloro-benzenesulfonyl)-4,5,12-triaza-tricyclo[6.3.1.0^2,6]dodeca-2(6),3-dien-7-ol] stands less than 100 nM.

On to `Cn1ncc2c1CC1CCCC2N1S(=O)(=O)c1ccc(Cl)cc1` (stereo not shown) [Example 53, 12-(4-Chloro-benzenesulfonyl)-5-methyl-4,5,12-triaza-tricyclo[6.3.1.0^2,6]dodeca-2(6),3-diene], for which the IC50 was in the range of 250 to 500 nM. Under `O=S(=O)(c1ccc(Cl)cc1)N1C2CCCC1c1cnc3c(-c4ccccc4)cnn3c1C2` (stereo not shown) [Example 62, 16-(4-Chloro-benzenesulfonyl)-6-phenyl-4,8,9,16-tetraaza-tetracyclo-[10,3,1,0^2,10,0^5,9]-hexadeca-2(10),3,5,7-tetraene] stands 100 to 250 nM; under `O=S(=O)(c1ccc(Cl)cc1)N1C2CCCC1c1cnc3cc(-c4ccccc4)nn3c1C2` (stereo not shown) [Example 63, 16-(4-Chloro-benzenesulfonyl)-7-phenyl-4,8,9,16-tetraaza-tetracyclo-[10,3,1,0^2,10,0^5,9]-hexadeca-2(10),3,5,7-tetraene], 250 to 500 nM. Under `O=S(=O)(c1ccc(Cl)cc1)N1C2CCCC1c1cnn(C3CCCCC3)c1C2` (stereo not shown) [Example 66, 12-(4-Chloro-benzenesulfonyl)-5-cyclohexyl-4,5,12-triaza-tricyclo[6.3.1.0^2,6]dodeca-2(6),3-diene] stands 250 to 500 nM; under `O=S(=O)(c1ccc(Cl)cc1)N1C2CCC1c1cn[nH]c1C2` (stereo not shown) [Example 79, 11-(4-Chloro-benzenesulfonyl)-4,5,11-triaza-tricyclo[6.3.1.0^2,6]undeca-2(6),3-diene], less than 100 nM; under `O=S(=O)(c1ccc(Cl)cc1)N1C2CCCC1c1c(C(F)(F)F)n[nH]c1C2` (stereo not shown) [Example 82, 12-(4-Chloro-benzenesulfonyl)-3-trifluoromethyl-4,5,12-triaza-tricyclo-[6.3.1.0^2,6]dodeca-2(6),3-diene], less than 100 nM.

For the compound `CC(=O)n1cc2c(n1)CC1CCCC2N1S(=O)(=O)c1ccc(Cl)cc1` (stereo not shown) [Example 83, 1-[12-(4-Chloro-benzenesulfonyl)-4,5,12-triaza-tricyclo[6.3.1.0^2,6]dodeca-2,5-dien-4-yl]-ethanone], the IC50 is less than 100 nM. Under `CC(C)C(=O)n1cc2c(n1)CC1CCCC2N1S(=O)(=O)c1ccc(Cl)cc1` (stereo not shown) [Example 84, 1-[12-(4-Chloro-benzenesulfonyl)-4,5,12-triaza-tricyclo[6.3.1.0^2,6]dodeca-2,5-dien-4-yl]-2-methyl-propan-1-one] stands less than 100 nM; under `CC(=O)OC(C)(C)C(=O)n1cc2c(n1)CC1CCCC2N1S(=O)(=O)c1ccc(Cl)cc1` (stereo not shown) [Example 85, Acetic acid 2-[12-(4-chloro-benzenesulfonyl)-4,5,12-triaza-tricyclo[6.3.1.0^2,6]dodeca-2,5-dien-4-yl]-1,1-dimethyl-2-oxo-ethyl ester], less than 100 nM.

For `C=CCOC(=O)n1cc2c(n1)CC1CCCC2N1S(=O)(=O)c1ccc(Cl)cc1` (stereo not shown) [Example 86, 12-(4-Chloro-benzenesulfonyl)-4,5,12-triaza-tricyclo[6.3.1.0^2,6]dodeca-2,5-diene-4-carboxylic acid allyl ester], the IC50 was in the range of 250 to 500 nM. Under `Nc1ncc2c(n1)CC1CCCC2N1S(=O)(=O)c1ccc(Cl)cc1` (stereo not shown) [Example 87, 13-(4-Chloro-benzenesulfonyl)-4,6,13-triaza-tricyclo[7.3.1.0^2,7]trideca-2(7),3,5-trien-5-ylamine] stands 100 to 250 nM; under `O=S(=O)(c1ccc(Cl)cc1)N1C2CCCC1c1c(C(F)(F)F)n[nH]c1C2` (stereo not shown) [Example 89, 12-(4-Chloro-benzenesulfonyl)-3-trifluoromethyl-4,5,12-triaza-tricyclo-[6.3.1.0^2,6]dodeca-2(6),3-diene], 100 to 250 nM. Under `O=S(=O)(c1ccc(Cl)cc1)N1C2CCCC1c1c(Cl)n[nH]c1C2` (stereo not shown) [Example 91, 3-Chloro-12-(4-chloro-benzenesulfonyl)-4,5,12-triaza-tricyclo[6.3.1.0^2,6]dodeca-2(6),3-diene] stands 250 to 500 nM. Under `Nc1n[nH]c2c1C1CCCC(C2)N1S(=O)(=O)c1ccc(Cl)cc1` (stereo not shown) [Example 94, 12-(4-Chloro-benzenesulfonyl)-4,5,12-triaza-tricyclo[6.3.1.0^2,6]dodeca-2(6),3-dien-3-ylamine] stands less than 100 nM; under `Nc1n[nH]c2c1C1CCCC(C2)N1S(=O)(=O)c1ccc(Cl)cc1` (stereo not shown) [Example 97, 12-(4-Chloro-benzenesulfonyl)-4,5,12-triaza-tricyclo[6.3.1.0^2,6]dodeca-2(6),3-dien-3-ylamine], less than 100 nM. “N-[12-(4-Chloro-benzenesulfonyl)-4,5,12-triaza-tricyclo[6.3.1.0^2,6]dodeca-2(6),3-dien-7-yl]-acetamide [Example 98]”: the IC50 was less than 100 nM.
